SMILES strings stand for the structures. Entries after “also recorded” stand apart in the source; their conditions may differ.

The nature of series [1]: Serum 25S,26(OH)2 D level after administration (rat serum vitamin D binding protein assay). In kind it is in vivo, Sprague-Dawley rats (adult female). To be noted: mean ± SE. An excerpt:
(§1) Adult female Sprague-Dawley rats weighing between 190-200 g were used in all studies and were purchased from Harlan (Houston, TX). The animals were housed in the animal resource facility and were fed a standard vitamin D-replete rat chow diet (2.0% calcium and 0.9% phorphorus, Tekland, Winfield, OH) ad lib. After four to five days of equlibration the animals were divided into appropriate study groups and injected subcutaneously each day with various doses of 25(S),26(OH)2 D3 or 1,25(OH)2 D3 metabolites. In some experiments, animals received both metabolites as two separate injections. Control animals received only vehicle (propylene glycol).
Two ml of serum was obtained for each rat for measurement of 25(S),26(OH)2 D3, and 1,25-(OH)2 D3. […] This chromatographic system effectively separates 250HD (5-11 ml) from the dihydroxy metabolites (14-30 ml). The trihydroxy metabolite 1,25,26(OH)3 D is eluted from the column by changing the solvent system to 8:2:2:0.015 (hexane:chloroform:methanol:H2 O) after elution of the dihydroxy metabolites and collecting the next 12 ml.
250HD was purified on a 5% 2-propanol in hexane solvent system. The three dihydroxyvitamin D metabolites were isolated and purified using an 11% 2-propanol in hexane solvent system. […] The assay of 1,25(OH)2 D was accomplished using the chick intestinal receptor protein.
(§2) Values in parenthesis represent p value of significant difference between
(§3) dosed and control animals as determined by nonparametric analysis and
(§4) Welch's approximation to the t test. All values expressed as mean ± SE
(§5) for seven rats per group.
(§6) ^a 1,25(OH)2 D3 administered subcutaneously at a dose of
(§7) 0.15 μg/d/rat for three days
(§8) ^b 25S,26(OH)2 D3 administered subcutaneously for seven day
(§9) at a dose of 20 μg/d/rat; on days 5, 6, and 7 both 25S,26(OH)2
(§10) D3 and 1,25(OH)2 D3 (0.15 μg/d/rat) were given as two

Series [2] is described as follows: Effect of 25S,26(OH)2 D3 administration on 1,25(OH)2 D3 mediated increases in serum 1,25(OH)2 D3. The series is classed as in vivo, Sprague-Dawley rats (adult female). The conditions noted are these: for serum 1,25(OH)2 D: mean ± SE.
Description: as §1
Two ml of serum was obtained for each rat for measurement of 25(S),26(OH)2 D3, and 1,25-(OH)2 D3. After spiking the samples with approximately 1200 cpm of radiolabeled 250HD3, 24,25-(OH)2 D3 and 1,25(OH)2 D3 and allowing the samples to equilibrate for 30 minutes, isolation of the vitamin D metabolites was accomplished as described in Bishop JE, Norman AW, Coburn JW, Roberts PA, Henry, HL 1980 "Determination of the concentration of 25-hydroxyvitamin D, 24,25-dihydroxyvitamin D and 1,25-dihydroxyvitamin D in a single two-milliliter plasma sample." Min Elect Metab 3: 181. Further separation and partial purification of the metabolites was effected with lipohilic Sephadex (Sigma, St. Louis, MO) liquid gel chromatography using a 9:1:1:0.015 (hexane:chloroform:methanol:H2 O) solvent system and a 10×1 cm gel bed as previously described by Eisman JA, Hamstra AJ, Kream BD, DeLuca HF, 1975, "A sensitive, precise and convenient method for determination of 1,25-dihydroxyvitamin D in human plasma." Arch Biochem Biophys 176: 235. This chromatographic system effectively separates 250HD (5-11 ml) from the dihydroxy metabolites (14-30 ml). The trihydroxy metabolite 1,25,26(OH)3 D is eluted from the column by changing the solvent system to 8:2:2:0.015 (hexane:chloroform:methanol:H2 O) after elution of the dihydroxy metabolites and collecting the next 12 ml.
Final resolution and purification of the vitamin D metabolites was performed with high pressure liquid chromatography as previously described in Zerwekh et al., 1983, "Extra-renal production of 24,25-dihydroxyvitaminD in chronic renal failure during 25-hydroxyvitamin D3 therapy." Kid Int. 23: 401 and Pak et al., 1982, "Effects of short-term glucocorticoid administration in primary hyperparathyroidism: comparison to sarcoidiosis J. Clin. Endrocrinol Metab. 54: 824. 250HD was purified on a 5% 2-propanol in hexane solvent system. The three dihydroxyvitamin D metabolites were isolated and purified using an 11% 2-propanol in hexane solvent system. The assay of 25S,26-(OH)2 D was performed using the rat serum vitamin D binding protein assay system described in Haddad JG, Chyu KF 1971 "competitive protein binding assay for 25-hydroxycholecalciferol." J Clin Endocrinol Metab 33: 992. The assay of 1,25(OH)2 D was accomplished using the chick intestinal receptor protein.
as §2, §3, §4, §5, §6, §7, §8, §9, §10

As to `C=C1/C(=C\C=C2/CCC[C@]3(C)[C@@H]([C@H](C)CCCC(C)(C)O)CC[C@@H]23)C[C@@H](O)C[C@@H]1O` [1,25(OH)2 D3, 1α,25-dihydroxycholecalciferol, reference compound], the “serum 25S,26(OH)2 D” value came out at 3.0 ± 0.8 ng/mL in series [1] (Exp. 1, 1,25(OH)2 D3 alone, 0.15 μg/d/rat s.c., three days, seven rats, control 1.9 ± 0.2); 3.20 ± 0.3 ng/mL in series [1] (Exp. 2, 1,25(OH)2 D3 alone s.c., seven rats, control 2.0 ± 0.2); 0.9 ± 0.3 ng/mL in series [1] (Exp. 3, 1,25(OH)2 D3 alone s.c., seven rats, control 1.20 ± 0.1). Further, the “serum 1,25(OH)2 D” value was 206 ± 17 pg/mL in series [2] (Exp. 1, 1,25(OH)2 D3 alone, 0.15 μg/d/rat s.c., three days, seven rats, control 25 ± 3, p < 0.001); 175 ± 52 pg/mL in series [2] (Exp. 2, 1,25(OH)2 D3 alone s.c., seven rats, control 23 ± 3, p = 0.006); 180 ± 45 pg/mL in series [2] (Exp. 3, 1,25(OH)2 D3 alone s.c., seven rats, control 27 ± 4, p < 0.001).

For the molecule `C=C1CC[C@H](O)C/C1=C/C=C1\CCC[C@]2(C)[C@@H]([C@H](C)CCC[C@](C)(O)CO)CC[C@@H]12` [25S,26(OH)2 D3, 25S,26-dihydroxycholecalciferol], the “serum 25S,26(OH)2 D” value in series [1] (Exp. 1, 25S,26(OH)2 D3 20 μg/d/rat s.c. seven days + 1,25(OH)2 D3 0.15 μg/d/rat days 5, 6, 7, control 1.9 ± 0.2, p < 0.001) was 295 ± 7 ng/mL; in series [1] (Exp. 2, 25S,26(OH)2 D3 + 1,25(OH)2 D3 s.c., seven rats, control 2.0 ± 0.2, p < 0.01) it was 168 ± 14 ng/mL; in series [1] (Exp. 3, 25S,26(OH)2 D3 + 1,25(OH)2 D3 s.c., seven rats, control 1.20 ± 0.1, p < 0.006) it was 236 ± 28 ng/mL. Moreover, the “serum 1,25(OH)2 D” value was found to be 59 ± 3 pg/mL in series [2] (Exp. 1, 25S,26(OH)2 D3 20 μg/d/rat s.c. seven days + 1,25(OH)2 D3 0.15 μg/d/rat days 5, 6, 7, control 25 ± 3); 46 ± 4 pg/mL in series [2] (Exp. 2, 25S,26(OH)2 D3 + 1,25(OH)2 D3 s.c., seven rats, control 23 ± 3); 38 ± 6 pg/mL in series [2] (Exp. 3, 25S,26(OH)2 D3 + 1,25(OH)2 D3 s.c., seven rats, control 27 ± 4). Further, the “reduction of serum / endogenous 1,25-dihydroxycholecalciferol” value in series [2] (result in words) is “lowers endogenous levels of 1α,25-dihydroxycholecalciferol; also recorded: active in reducing serum concentrations of 1,25-dihydroxycholecalciferol”.
